Test results: patent US7071349B2, “Purification method of N-(1(S)-ethoxycarbonyl-3-phenylpropyl)-L-alanine” (Kanaka Corporation, priority 2001, dated 2006)

Assay: Solubility of the pure product in mixed solvents of ethanol and water
Format: physicochemical
Description: One-hundred milliliters each of mixed solvents of ethanol and water in predetermined volume ratios were respectively adjusted to predetermined temperatures and each […] of N-(1(S)-ethoxycarbonyl-3-phenylpropyl)-L-alanine was no longer dissolved. After 30 minutes of standing, the supernatant was taken and the solubility (weight %) was determined according to the weight after concentration to dryness/the weight of the solution.

Solubility (ethanol/water volume ratio 0.43, 10° C.): 1 weight % | Solubility (ethanol/water volume ratio 0.43, 65° C.): 9 weight % | Solubility (ethanol/water volume ratio 1.00, 10° C.): 2 weight % | Solubility (ethanol/water volume ratio 1.00, 20° C.): 3 weight % | Solubility (ethanol/water volume ratio 1.00, 65° C.): 21 weight % | Solubility (ethanol/water volume ratio 2.33, 10° C.): 3 weight % | Solubility (ethanol/water volume ratio 2.33, 20° C.): 4 weight % | Solubility (ethanol/water volume ratio 2.33, 65° C.): 42 weight % | Solubility (ethanol/water volume ratio 4.00, 10° C.): 4 weight % | Solubility (ethanol/water volume ratio 4.00, 20° C.): 5 weight % | Solubility (ethanol/water volume ratio 4.00, 65° C.): 45 weight % | Solubility (ethanol/water volume ratio 5.67, 10° C.): 3 weight % | Solubility (ethanol/water volume ratio 5.67, 20° C.): 5 weight % | Solubility (ethanol/water volume ratio 5.67, 65° C.): 42 weight % | Solubility (ethanol/water volume ratio 15.7, 10° C.): 3 weight % | Solubility (ethanol/water volume ratio 15.7, 20° C.): 4 weight % | Solubility (ethanol/water volume ratio 15.7, 65° C.): 26 weight % | Solubility (ethanol/water volume ratio 249, 10° C.): 2 weight % | Solubility (ethanol/water volume ratio 249, 20° C.): 3 weight % | Solubility (ethanol/water volume ratio 249, 65° C.): 17 weight %
Compound: CCOC(=O)[C@H](CCc1ccccc1)N[C@@H](C)C(=O)O [N-(1(S)-ethoxycarbonyl-3-phenylpropyl)-L-alanine]
